Assay results: patent publication EP0606463B1, “NEUROMEDIN B RECEPTOR ANTAGONISTS” (The Administrators of The Tulane Educational Fund, priority 1992, dated 1994)
Where a SMILES comes first, the peptide text is derived from it. Bridges are numbered along the chain shown (N, C = ends). [ ]: non-standard residue; d: D form. 2Nal = N[C@@H](Cc1ccc2ccccc2c1)C(=O)O; d2Nal = N[C@H](Cc1ccc2ccccc2c1)C(=O)O; Lys(iPr) = CC(C)NCCCC[C@H](N)C(=O)O

Columns and labels:
GRP Receptor = biological target: T1, GRP Receptor (Rattus norvegicus, UniProt P52500); experiment: Amylase release from rat pancreatic acini; assay type: cell-based; conditions: for Rat Pancreatic Acini Amylase Release Alone (10µM): analog 10 µM alone, no-additive control 4 ± 1; for Rat Pancreatic Acini Amylase Release Plus Bn(0.3 nM): analog 10 µM plus Bn 0.3 nM, Bn without analog 15 ± 1
T1 construct: from tissue; host or cells: dispersed pancreatic acini

rat NMB receptor = biological target: T2, rat NMB receptor (Rattus norvegicus, UniProt P24053); experiment: Binding of 125I-[D-Tyr0]NMB to NMB-R transfected BALB 3T3 cells; conditions: for fold by which cyclo SS-octa was more potent than the analog: inhibition of ^125I-[Tyr^0]NMB binding to NMB-R transfected cells; for decrease in NMB receptor affinity compared with #1: structure-function comparison of Table 1 values
T2 construct: a full length NMB-preferring bombesin receptor clone generated from rat esophagus; expressed in transfected cells; host or cells: BALB 3T3 cells
T2 sequence (P24053 1-390): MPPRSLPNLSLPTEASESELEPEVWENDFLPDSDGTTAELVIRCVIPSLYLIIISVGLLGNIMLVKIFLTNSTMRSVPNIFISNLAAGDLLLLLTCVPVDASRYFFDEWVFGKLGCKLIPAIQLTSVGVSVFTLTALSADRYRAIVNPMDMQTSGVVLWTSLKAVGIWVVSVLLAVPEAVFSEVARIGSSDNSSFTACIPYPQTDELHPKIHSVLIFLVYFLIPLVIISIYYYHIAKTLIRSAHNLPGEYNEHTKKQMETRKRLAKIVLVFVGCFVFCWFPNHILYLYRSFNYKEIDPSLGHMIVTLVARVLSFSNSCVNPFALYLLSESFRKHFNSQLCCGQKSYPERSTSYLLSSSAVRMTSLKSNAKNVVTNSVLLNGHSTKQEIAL
Procedure: (§1) Cells were passaged every 3-4 days at confluence, using 0.1% trypsin in 1 mM EDTA. Rat glioblastoma C-6 tumor cells were maintained similarly and were passaged weekly at confluence. Both cell lines were cultured at 37°C in a 5% CO2 atmosphere. Rat AR 42J pancreatic acinar cells were cultured in Dulbecco's modified Eagle's medium (DMEM) without antibiotics and supplemented with 10% (vol/vol) fetal calf serum. The incubation atmosphere consisted of 10% CO2-90% humidified air at 37°C.

NMB Receptor = biological target: T3, NMB Receptor (Rattus norvegicus, UniProt P24053); experiment: [3H]inositol phosphates (IP) in NMB-R transfected cells; assay type: cell-based; conditions: for NMB-R Transfected Cells [^3H]IP Alone (10 µ M): analog 10 µM alone, no-additive control 13 ± 3; for NMB-R Transfected Cells [^3H]IP Plus NMB (3 nM): analog 10 µM plus NMB 3 nM, NMB without analog 186 ± 58; for effect on NMB-stimulated increase in [^3H]IP: NMB-R transfected cells, 3 nM NMB, peptide 10 µM
T3 construct: a full length NMB-preferring bombesin receptor clone generated from rat esophagus; expressed in transfected cells; host or cells: BALB 3T3 cells
T3 sequence (P24053 1-390): T2 sequence (P24053 1-390)
Procedure: as §1, with “As described previously [Wada, E., et al. Neuron 6:421 (1991)], BALB 3T3 cells expressing a stably transfected rat NMB receptor (NMB-R transfected cells) were obtained using calcium phosphate precipitation of a full length NMB-preferring bombesin receptor clone generated from rat esophagus and subcloned into a modified version of the pCD2 plasmid. Cells” for “Cells”
Total phosphoinositides in C-6 cells and in NMB-R transfected cells were determined as described previously, with minor modifications [Benya, R. V. et al. Mol. Pharmacol. 42:1058 (1992); and Wang, L-H. et al. Biochem. J. 286:641 (1992)]. Cells were grown to confluence in 24-well plates and then loaded with 100 µCi/ml myo-[2-^3H]inositol in Dulbecco's modified essential medium with 2% fetal bovine serum at 37°C for 48 hrs. Cells were washed and incubated in phosphoinositide buffer (standard buffer additionally containing 10 mM LiCl, 20 mM HEPES, 2 mM CaCl2, 2% BSA, and 1.2 mM MgSO4) for 15 min and then for 60 min at 37°C with agonists at various concentrations or with 3 nM NMB (a half-maximal effective concentration) and possible antagonists at different concentrations. Reactions were halted using ice-cold 1% HCl in methanol, and the inositol phosphates (IP) were isolated as described previously [Bologna, M. et al. Cancer 63:1714 (1989); and Endo, T. et al. J. Endocrinol. 131:313 (1991)]. Briefly, after loading of the anion exchange column, free [^3H]glycerophosphorylinositol was removed by washing with 5 mM disodium tetraborate in 60 mM sodium formate. Total [^3H]inositol phosphates were then eluted using 100 mM formic acid in 1.0 M ammonium formate as described previously [Benya, R. V. et al. Mol. Pharmacol. 42:1058 (1992); and Wang, L-H. et al. Biochem. J. 286:641 (1992)].

T1 sequence (P52500 whole entry): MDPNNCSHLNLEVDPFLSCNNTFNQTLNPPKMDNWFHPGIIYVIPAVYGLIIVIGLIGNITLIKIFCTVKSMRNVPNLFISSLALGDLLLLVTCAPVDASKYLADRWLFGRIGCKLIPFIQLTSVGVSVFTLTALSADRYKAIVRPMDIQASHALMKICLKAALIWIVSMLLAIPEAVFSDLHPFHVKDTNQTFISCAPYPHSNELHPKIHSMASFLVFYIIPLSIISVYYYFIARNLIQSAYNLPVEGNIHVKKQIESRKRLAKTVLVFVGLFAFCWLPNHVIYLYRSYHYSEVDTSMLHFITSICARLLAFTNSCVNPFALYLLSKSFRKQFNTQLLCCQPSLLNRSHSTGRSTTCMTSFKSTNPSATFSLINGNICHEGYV

Compound | Rat Pancreatic Acini Amylase Release Alone (10µM) (GRP Receptor) [% total] | Rat Pancreatic Acini Amylase Release Plus Bn(0.3 nM) (GRP Receptor) [% total] | fold by which cyclo SS-octa was more potent than the analog (rat NMB receptor) [fold] | NMB-R Transfected Cells [^3H]IP Alone (10 µ M) (NMB Receptor) [dpm x 10^3] | NMB-R Transfected Cells [^3H]IP Plus NMB (3 nM) (NMB Receptor) [dpm x 10^3] | effect on NMB-stimulated increase in [^3H]IP (NMB Receptor) | decrease in NMB receptor affinity compared with #1 (rat NMB receptor) [fold] | fold greater affinity for the NMB than the GRP receptors (rat NMB receptor; NMB-R transfected cells versus GRP receptors on rat pancreatic acini) [fold]
CC(C)[C@@H]1NC(=O)[C@H](CCCCN)NC(=O)[C@@H](Cc2c[nH]c3ccccc23)NC(=O)[C@H](Cc2ccc(O)cc2)NC(=O)[C@@H](NC(=O)[C@H](N)Cc2ccccc2)CSSC[C@@H](C(=O)N[C@@H](Cc2ccc3ccccc3c2)C(N)=O)NC1=O [Analog #4, [D-Phe^1]-cyclo SS-octa] (H-[dF]CY[dW]KVC[2Nal]-NH2; disulfide 2-7; N-terminus assumed) | 4 ± 2 | 14 ± 1 | 4 | 13 ± 1 | 33 ± 4 |  |  | 
C[C@@H](O)[C@H](NC(=O)[C@@H]1CSSC[C@H](NC(=O)[C@H](N)Cc2ccc3ccccc3c2)C(=O)N[C@@H](Cc2ccc(O)cc2)C(=O)N[C@H](Cc2c[nH]c3ccccc23)C(=O)N[C@@H](CCCCN)C(=O)N[C@@H]([C@@H](C)O)C(=O)N1)C(N)=O [Analog #6, [Thr^6,8]-cyclo-SS-octa] | 3 ± 1 | 14 ± 2 | 69 | 11 ± 2 | 188 ± 30 | had no effect |  | 
C[C@@H](O)[C@@H]1NC(=O)[C@H](CCCCN)NC(=O)[C@@H](Cc2c[nH]c3ccccc23)NC(=O)[C@H](Cc2ccc(O)cc2)NC(=O)[C@@H](NC(=O)[C@H](N)Cc2ccccc2)CSSC[C@@H](C(=O)N[C@@H](Cc2ccc3ccccc3c2)C(N)=O)NC1=O [Analog #7, [D-Phe^1, Thr^6]-cyclo-SS-octa] (H-[dF]CY[dW]KTC[2Nal]-NH2; disulfide 2-7; N-terminus assumed) | 3 ± 1 | 16 ± 1 | 18 | 15 ± 1 | 99 ± 24 |  |  | 
CC(C)[C@@H]1NC(=O)[C@H](CCCCN)NC(=O)[C@@H](Cc2c[nH]c3ccccc23)NC(=O)[C@H](Cc2ccc(O)cc2)NC(=O)[C@@H](NC(=O)[C@H](N)Cc2ccc3ccccc3c2)CSSC[C@@H](C(=O)N[C@H](Cc2ccc3ccccc3c2)C(N)=O)NC1=O [Analog #8, [D-Nal^8]-cyclo SS-octa] (H-[d2Nal]CY[dW]KVC[d2Nal]-NH2; disulfide 2-7; N-terminus assumed) | 2 ± 1 | 14 ± 1 | 9 | 10 ± 3 | 67 ± 13 |  | 6 | 
CC(C)[C@@H]1NC(=O)[C@H](CCCCN)NC(=O)[C@@H](Cc2c[nH]c3ccccc23)NC(=O)[C@H](Cc2ccc(O)cc2)NC(=O)[C@@H](NC(=O)[C@@H](N)Cc2ccc3ccccc3c2)CSSC[C@@H](C(=O)N[C@H](Cc2ccc3ccccc3c2)C(N)=O)NC1=O [Analog #9, [Nal^1,D-Nal^8]-cyclo SS-octa] (H-[2Nal]CY[dW]KVC[d2Nal]-NH2; disulfide 2-7; N-terminus assumed) | 3 ± 1 | 16 ± 1 | 6 | 8 ± 2 | 28 ± 6 |  |  | 
CC(C)[C@@H]1NC(=O)[C@H](CCCCN)NC(=O)[C@@H](Cc2c[nH]c3ccccc23)NC(=O)[C@H](Cc2ccc(O)cc2)NC(=O)[C@H](NC(=O)[C@H](N)Cc2ccc3ccccc3c2)CSSC[C@@H](C(=O)N[C@@H](Cc2ccc3ccccc3c2)C(N)=O)NC1=O [Analog #10, [D-Cys^2]-cyclo SS-octa] (H-[d2Nal][dC]Y[dW]KVC[2Nal]-NH2; disulfide 2-7; N-terminus assumed) | 3 ± 1 | 16 ± 1 | 6 | 10 ± 3 | 4 ± 2 | completely inhibited | 5 | 
CC(C)[C@@H]1NC(=O)[C@H](CCCCN)NC(=O)[C@@H](Cc2c[nH]c3ccccc23)NC(=O)[C@H](Cc2ccc(O)cc2)NC(=O)[C@@H](NC(=O)[C@H](N)Cc2c[nH]c3ccccc23)CSSC[C@@H](C(=O)N[C@@H](Cc2ccc3ccccc3c2)C(N)=O)NC1=O [Analog #12, [D-Trp^1]-cyclo SS-octa] (H-[dW]CY[dW]KVC[2Nal]-NH2; disulfide 2-7; N-terminus assumed) | 3 ± 1 | 13 ± 1 | 9 | 9 ± 2 | 43 ± 2 |  |  | 
NCCCC[C@@H]1NC(=O)[C@@H](Cc2c[nH]c3ccccc23)NC(=O)[C@H](Cc2ccc(O)cc2)NC(=O)[C@@H](NC(=O)[C@H](N)Cc2ccc3ccccc3c2)CSSC[C@@H](C(=O)N[C@@H](Cc2ccc3ccccc3c2)C(N)=O)NC(=O)[C@H](Cc2ccccc2)NC1=O [Analog #13, [Phe^6]-cyclo SS-octa] (H-[d2Nal]CY[dW]KFC[2Nal]-NH2; disulfide 2-7; N-terminus assumed) | 3 ± 1 | 14 ± 1 | 2 | 10 ± 1 | 9 ± 4 | completely inhibited |  | > 100
CC(C)NCCCC[C@@H]1NC(=O)[C@@H](Cc2c[nH]c3ccccc23)NC(=O)[C@H](Cc2ccc(O)cc2)NC(=O)[C@@H](NC(=O)[C@H](N)Cc2ccccc2)CSSC[C@@H](C(=O)N[C@@H](Cc2ccc3ccccc3c2)C(N)=O)NC(=O)[C@H]([C@@H](C)O)NC1=O [Analog #15, [D-Phe^1, Lys(iPr)^5, Thr^6]-cyclo SS-octa] (H-[dF]CY[dW][Lys(iPr)]TC[2Nal]-NH2; disulfide 2-7; N-terminus assumed) | 4 ± 2 | 13 ± 2 | 9 | 11 ± 1 | 67 ± 7 |  |  | 
C[C@@H](O)[C@H](NC(=O)[C@@H]1CSSC[C@H](NC(=O)[C@H](N)Cc2ccc3ccccc3c2)C(=O)N[C@@H](Cc2ccccc2)C(=O)N[C@H](Cc2c[nH]c3ccccc23)C(=O)N[C@@H](CCCCN)C(=O)N[C@@H]([C@@H](C)O)C(=O)N1)C(N)=O [Analog #18, [Phe^3, Thr^6,8]-cycle SS-octa] (H-[d2Nal]CF[dW]KTCT-NH2; disulfide 2-7) |  |  |  | 11 ± 1 | 143 ± 11 | had no effect |  | 
